The values below come from patent US11517645B2, “Bone-tendon graft biomaterial, use as a medical device and method of making same” (The Board of Trustees of the Leland Stanford Junior …, priority 2016, dated 2022).

Experiment [1] relates to C2C12 cells. In words: ALP staining, C2C12 osteoblast differentiation on QHM polymers with BMP-2 in media. Type of experiment: cell-based, mouse. Conditions: 25 μM blebbistatin. The method, then:
ALP activity was detected according to the manufacturer's instructions (Sigma Aldrich, St. Louis, Mo.) as previously described with minor modifications^18,19.
For studies on the effect of Young's moduli on osteoblast differentiation (using uniform QHM polymer samples), C2C12 cells were seeded into 24 well plates containing uncoated QHM polymer samples (circular discs approximately 1 cm in diameter) at a density of 7.47×10^4 cells per cm^2 overnight in DMEM, 10% FBS and 1% PS media. […] Media were changed every 48 h. ALP staining was performed at 4, 8 and 14 days.
For studies on the effect of Young's moduli on osteoblast differentiation (using 0 s:300 s UV mechanically-graded QHM polymer samples), C2C12 cells were seeded into 24 well plates containing uncoated QHM polymer samples (rectangular specimens measuring approximately 0.5 cm×1 cm) at a density of 7.47×10^4 cells per cm^2 overnight in DMEM, 10% FBS and 1% PS media. […] Media were changed every 48 h. ALP staining were performed at 3 days post-seeding.
At designated time points, cells were fixed for 1 min in 3.7% formaldehyde and samples were incubated with ALP stain for 1 h. Color images of samples were acquired using an inverted Zeiss AxioObserver Z1 microscope equipped with an AxioCam ICC color camera and a Nikon D70 Digital camera (Nikon Corp., Tokyo, Japan). Where required, the ALP-stained images were quantified by calculating the average pixel intensity in Adobe Photoshop 7.0 as previously described^18,19.

Experiment [2] concerns C57BL-6J mice. In words: Mouse subcutaneous implantation of growth factor-biopatterned QHM grafts. The format is in vivo. Conditions: 3 μg patterned on fibrin-coated QHM polymer, 14 days subcutaneous.
Description: Mouse subcutaneous surgeries were performed in accordance with the guidelines established by Stanford University's Administrative Panel on Laboratory Animal Care. Wild-type C57BL-6J mice (Charles River Laboratories, Wilmington, Mass.) between 8 and 12 weeks of age (20-30 g) were used in this study. All mice were maintained in the Stanford Animal Facility, with a 12:12 h light-dark cycle and free access to standard laboratory food and water. Mice were anesthetized by inhalation with isoflurane (4% for induction, 2% for maintenance, Abbott Laboratories, Chicago) as well as administered 0.05 mg/kg Buprenorphine (Hospira Inc., Lake Forest, Ill.) and 25 mg/kg Cefazolin (Thermo Fisher Scientific, Waltham, Mass.) as an analgesic and anti-infective, respectively. Grafts (Square specimens 6×6×1 mm) were comprised of 0 s UV and 300 s UV QHM polymer regions (each measuring 3×3×1 mm) biopatterned with 1) no growth factor, 2) 3 μg FGF-2 on 0 s UV QHM polymer region and 3 μg BMP-2 on 300 s UV QHM polymer region or 3) 3 μg GDF-7 on 0 s UV QHM polymer region and 3 μg BMP-2 on 300 s UV QHM polymer region. Under sterile conditions, a 2.5 cm skin incision was made and grafts were sutured subcutaneously to the skin using 3-0 Nylon sutures (Oasis, Med-Vet International, Mettawa, Ill.) in a bilateral manner. Subsequently, the skin was re-approximated and closed with 3-0 Nylon sutures. […]
The subject of experiment [3] is C2C12 cells. Briefly: SCX immunofluorescence, C2C12 tenocyte differentiation on QHM polymers. The format is cell-based, mouse. Conditions: fibrin-coated QHM polymers in vitro, 3 days. The method, then:
(§1) Immunofluorescence staining was performed as previously described with minor modifications^18,19.
For studies on the effect of Young's moduli on osteoblast or tenocyte differentiation (using uniform or 0 s:300 s UV mechanically-graded QHM polymer samples), C2C12 cells were seeded into 24 well plates containing uncoated QHM polymer samples (circular discs approximately 1 cm in diameter or rectangular specimens measuring approximately 0.5 cm×1 cm) at a density of 7.47×10^4 cells per cm^2 overnight in DMEM, 10% FBS and 1% PS media. […] Media were changed every 48 h. SCX staining was performed at 3 days post-seeding. RUNT-RELATED TRANSCRIPTION FACTOR-2 (RUNX-2) or OSTEOCALCIN (OCN) staining was performed at 4 days post-seeding. […]
(§2) Samples were permeabilized with 0.2% Triton X-100 (Sigma Aldrich, St. Louis, Mo.), washed three times in wash buffer (PBS and 0.1% BSA) and blocked with 10% donkey serum (Jackson Immunoresearch, West Gove, Pa.) for 1 h at room temperature. […] Lastly, cells were rinsed five times with wash buffer (5 min each) and fluorescence images were acquired on an inverted Zeiss AxioObserver Z1 microscope equipped with an X-Cite® Series 120Q metal halide lamp, appropriate filters and an AxioCam MRm camera.

For experiment [4], the system named is C2C12 cells. Briefly: TENASCIN C and TENOMODULIN immunofluorescence, C2C12 on TCPS with FGF-2. Type of experiment: cell-based, mouse. Conditions: 50 or 100 ng/mL FGF-2, TCPS, 3 days. The method, then: as §1
For in vitro studies not involving QHM polymers, C2C12 cells were seeded into 24 well plates at a density of 7.47×10^4 cells per cm^2 in DMEM, 10% FBS, 1% PS media. The following day (Day 0), the media were changed to DMEM, 10% FBS, 1% PS with 0, 50 or 100 ng/mL FGF-2. Media were changed every 48 h. Cells were fixed in 4% paraformaldehyde (Electron Microscopy Sciences, Hatfield, Pa.) for 15 min and TENOMODULIN or TENASCIN C staining was performed at 3 days post-seeding.
as §2

Consider `Cc1ccc2c(c1)C(=O)C1(O)CCN(c3ccccc3)C1=N2` (stereo not drawn) [blebbistatin], for which, in experiment [1] (4 days), the “Effect on BMP-2-induced ALP activity on QHM polymers” value is given as “inhibited slightly” and the “Effect on C2C12 ALP activity on TCPS” value is reported as “did not inhibit”. In experiment [1] (8 days), the “Inhibitory effect on ALP activity” value was “occurred only on 0 s UV QHM polymer”. Besides, the “Inhibitory effect on ALP activity” value in experiment [1] (14 days) was “no longer observed”.
For “FGF-2: fibroblast growth factor-2 (Peprotech), tendon-promoting cue”, in experiment [2], the “Tissue formed on growth factor pattern in vivo” value is “reminiscent of immature tendon”. Moreover, the “C2C12 SCX expression on FGF-2 patterns relative to off pattern controls” value in experiment [3] is recorded as “largely increased”. Further, in experiment [4], the “TENASCIN C expression relative to untreated controls” value is “increased TENASCIN C expression” and the “TENOMODULIN expression relative to untreated controls” value is “increased TENOMODULIN expression”.

B1: GDF-7: growth and differentiation factor-7 (Sino Biological), tendon-promoting cue (protein, UniProt Q7Z4P5 322-450, looked up)
Growth/differentiation factor …: TALAGTRTAQGSGGGAGRGHGRRGRSRCSRKPLHVDFKELGWDDWIIAPLDYEAYHCEGLCDFPLRSHLEPTNHAIIQTLLNSMAPDAAPASCCVPARLSPISILYIDAANNVVYKQYEDMVVEACGCR
For B1, in experiment [2], the “Tissue formed on growth factor pattern in vivo” value is given as “reminiscent of immature tendon”.
